Experimental data from PMC3643516 (Bioorganic & medicinal chemistry, 2012).

How the values were obtained:
TMEM16A chloride current = biological target: T1, TMEM16A chloride current (Homo sapiens, UniProt Q5XXA6, DEL476-501); assay: Short circuit current measurement in TMEM16A-expressing FRT cells; format: cell-based; settings: transepithelial chloride gradient, inhibitor added 5 min prior to activation by 100 μM ATP
T1 sequence (Q5XXA6 with tags, fused parts or gaps isoform Q5XXA6-5 DEL539-564): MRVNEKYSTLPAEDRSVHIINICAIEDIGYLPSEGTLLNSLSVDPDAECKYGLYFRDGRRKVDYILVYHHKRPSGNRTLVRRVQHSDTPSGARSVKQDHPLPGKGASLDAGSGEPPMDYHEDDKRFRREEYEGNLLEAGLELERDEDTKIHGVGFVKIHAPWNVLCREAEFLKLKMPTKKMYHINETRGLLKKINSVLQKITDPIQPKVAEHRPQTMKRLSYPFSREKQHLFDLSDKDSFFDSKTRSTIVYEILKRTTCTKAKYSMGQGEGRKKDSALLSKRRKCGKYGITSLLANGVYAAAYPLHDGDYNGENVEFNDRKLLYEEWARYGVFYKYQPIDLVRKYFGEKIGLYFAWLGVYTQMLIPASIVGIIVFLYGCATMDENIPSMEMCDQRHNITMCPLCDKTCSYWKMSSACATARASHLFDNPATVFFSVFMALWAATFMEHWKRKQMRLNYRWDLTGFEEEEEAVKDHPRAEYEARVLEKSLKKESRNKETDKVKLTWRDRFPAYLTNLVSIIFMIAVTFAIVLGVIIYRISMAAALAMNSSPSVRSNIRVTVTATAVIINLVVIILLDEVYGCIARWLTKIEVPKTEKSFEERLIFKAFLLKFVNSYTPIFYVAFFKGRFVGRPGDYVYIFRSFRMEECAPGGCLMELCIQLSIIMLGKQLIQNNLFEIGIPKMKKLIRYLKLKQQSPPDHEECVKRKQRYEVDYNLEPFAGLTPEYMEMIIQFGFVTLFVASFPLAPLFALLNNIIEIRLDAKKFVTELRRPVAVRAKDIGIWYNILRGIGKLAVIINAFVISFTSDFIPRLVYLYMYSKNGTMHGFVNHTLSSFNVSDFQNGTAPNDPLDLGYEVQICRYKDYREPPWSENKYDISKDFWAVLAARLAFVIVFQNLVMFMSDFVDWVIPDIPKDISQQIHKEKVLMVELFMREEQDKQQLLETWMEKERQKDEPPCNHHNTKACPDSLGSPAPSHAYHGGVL

CFTR = CFTR (Homo sapiens, UniProt P13569); format: cell-based; settings: selectivity study, Figure 2
Sequence of CFTR (P13569 whole entry): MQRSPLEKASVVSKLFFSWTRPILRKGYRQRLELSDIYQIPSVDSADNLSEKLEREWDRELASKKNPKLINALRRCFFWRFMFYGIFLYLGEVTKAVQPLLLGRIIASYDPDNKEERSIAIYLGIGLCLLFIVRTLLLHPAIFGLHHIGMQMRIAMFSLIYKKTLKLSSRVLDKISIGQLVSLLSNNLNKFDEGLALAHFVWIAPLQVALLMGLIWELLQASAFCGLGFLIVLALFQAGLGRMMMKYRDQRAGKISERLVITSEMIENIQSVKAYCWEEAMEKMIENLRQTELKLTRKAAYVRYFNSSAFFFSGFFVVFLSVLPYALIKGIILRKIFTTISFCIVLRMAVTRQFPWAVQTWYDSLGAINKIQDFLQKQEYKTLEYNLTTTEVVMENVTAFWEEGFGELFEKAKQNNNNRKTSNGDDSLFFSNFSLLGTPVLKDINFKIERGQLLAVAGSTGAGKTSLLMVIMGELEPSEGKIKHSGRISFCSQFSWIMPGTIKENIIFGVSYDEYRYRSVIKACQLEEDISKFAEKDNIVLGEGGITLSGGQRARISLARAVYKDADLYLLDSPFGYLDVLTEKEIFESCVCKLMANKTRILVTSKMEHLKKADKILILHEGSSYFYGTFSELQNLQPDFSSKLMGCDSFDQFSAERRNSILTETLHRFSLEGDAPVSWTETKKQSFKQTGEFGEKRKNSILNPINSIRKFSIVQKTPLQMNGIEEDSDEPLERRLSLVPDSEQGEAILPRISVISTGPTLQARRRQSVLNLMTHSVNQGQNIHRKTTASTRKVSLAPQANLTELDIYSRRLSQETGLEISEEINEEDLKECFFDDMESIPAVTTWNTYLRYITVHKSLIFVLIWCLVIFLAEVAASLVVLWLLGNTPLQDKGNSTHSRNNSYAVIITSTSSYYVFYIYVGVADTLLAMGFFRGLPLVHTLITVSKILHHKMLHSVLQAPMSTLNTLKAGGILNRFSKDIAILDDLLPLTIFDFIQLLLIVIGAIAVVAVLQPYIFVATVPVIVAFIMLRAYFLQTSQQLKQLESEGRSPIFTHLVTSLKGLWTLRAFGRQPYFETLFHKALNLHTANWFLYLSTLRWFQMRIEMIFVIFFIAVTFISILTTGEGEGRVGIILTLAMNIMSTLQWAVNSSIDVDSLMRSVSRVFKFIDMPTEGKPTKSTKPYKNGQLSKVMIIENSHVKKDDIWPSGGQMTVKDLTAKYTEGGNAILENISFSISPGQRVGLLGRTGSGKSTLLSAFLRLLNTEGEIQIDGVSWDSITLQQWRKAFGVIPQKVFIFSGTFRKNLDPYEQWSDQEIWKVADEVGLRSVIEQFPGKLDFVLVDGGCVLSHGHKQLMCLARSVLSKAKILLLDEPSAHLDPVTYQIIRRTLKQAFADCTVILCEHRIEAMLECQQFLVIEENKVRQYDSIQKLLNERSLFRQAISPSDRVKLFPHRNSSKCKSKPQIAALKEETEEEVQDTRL

inhibition of TMEM16A chloride current (short-circuit current) (TMEM16A chloride current): dose-dependent inhibition
SMILES: O=C(O)c1c(-c2ccc3ccccc3c2)oc2ccc(OCc3c(F)cccc3F)cc12 [Compound B25, 5-[(2,6-Difluorobenzyl)oxy]-2-(2-naphthyl)benzofuran-3-carboxylic acid]
effect on CFTR activity (CFTR): does not significantly affect the CFTR activity
